pIC50: −log10 of the molar value.
Columns and labels:
Type in all cases: biochemical
[1] = molecular target: JAK1 (Homo sapiens (Human), UniProt P23458); assay: In vitro JAK kinase assay (TR-FRET), JAK1; conditions: catalytic domain aa 850-1154, GST-fusion; ATP 3 μM; peptide 60 nM; 30 minutes at room temperature
Procedure: (§1) Compounds were screened for their ability to inhibit JAK1, JAK2 and JAK3 using the assays as indicated below. […] The enzymatic activity was assayed using as substrate a biotinylated peptide, poly (GT)-Biotin (CisBio). […] The degree of phosphorylation was detected by TR-FRET (time-resolved fluorescence energy transfer). […] The enzymatic reactions took place for 30 minutes at room temperature. […] Incubate for 3 h and read on Victor 2V spectrofluorometer (Perkin Elmer) set to read fluorescence resonance energy transfer.

[2] = molecular target: JAK2 (Homo sapiens (Human), UniProt O60674); assay: In vitro JAK kinase assay (TR-FRET), JAK2; conditions: catalytic domain aa 826-1132, GST-fusion; ATP 0.2 μM; peptide 20 nM; 30 minutes at room temperature
Procedure: as §1

[3] = molecular target: JAK3 (Homo sapiens (Human), UniProt P52333); assay: In vitro JAK kinase assay (TR-FRET), JAK3; conditions: catalytic domain aa 795-1124, GST-fusion; ATP 0.6 μM; peptide 140 nM; 30 minutes at room temperature
Procedure: as §1

Sequence of JAK2 (O60674 826-1132): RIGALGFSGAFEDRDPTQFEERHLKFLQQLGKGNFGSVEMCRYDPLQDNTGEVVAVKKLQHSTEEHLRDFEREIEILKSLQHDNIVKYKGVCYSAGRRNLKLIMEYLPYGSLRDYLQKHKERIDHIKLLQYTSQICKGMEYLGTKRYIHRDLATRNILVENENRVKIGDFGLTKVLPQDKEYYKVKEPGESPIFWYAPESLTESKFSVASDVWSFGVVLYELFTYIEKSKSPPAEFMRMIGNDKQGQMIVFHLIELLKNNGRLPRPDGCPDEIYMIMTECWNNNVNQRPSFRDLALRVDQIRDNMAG
Sequence of JAK3 (P52333 795-1124): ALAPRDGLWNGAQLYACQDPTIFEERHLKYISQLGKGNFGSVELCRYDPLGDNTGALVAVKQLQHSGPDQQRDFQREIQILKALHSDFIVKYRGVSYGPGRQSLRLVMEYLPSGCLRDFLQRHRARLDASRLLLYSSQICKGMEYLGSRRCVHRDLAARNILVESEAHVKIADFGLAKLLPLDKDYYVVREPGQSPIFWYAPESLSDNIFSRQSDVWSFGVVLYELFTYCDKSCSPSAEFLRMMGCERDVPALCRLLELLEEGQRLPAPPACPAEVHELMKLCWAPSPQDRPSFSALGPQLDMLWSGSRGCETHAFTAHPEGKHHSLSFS
Sequence of JAK1 (P23458 850-1154): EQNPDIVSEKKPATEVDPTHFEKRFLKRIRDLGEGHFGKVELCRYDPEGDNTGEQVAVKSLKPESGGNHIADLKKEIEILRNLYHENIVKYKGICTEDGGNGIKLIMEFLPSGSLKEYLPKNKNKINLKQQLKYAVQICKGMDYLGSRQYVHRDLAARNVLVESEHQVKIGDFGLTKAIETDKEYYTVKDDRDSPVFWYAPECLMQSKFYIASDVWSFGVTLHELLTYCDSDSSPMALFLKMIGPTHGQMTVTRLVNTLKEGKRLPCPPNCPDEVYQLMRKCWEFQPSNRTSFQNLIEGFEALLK

| Molecule | pIC50 [1] | pIC50 [2] | pIC50 [3] |
| --- | --- | --- | --- |
| Cc1cc(-c2nc(-c3cnn4ccccc34)nc(O[C@@H]3CCCN(C(=O)CC#N)C3)c2F)ccn1 [Example 72, 3-((3R)-3-{[5-Fluoro-6-(2-methylpyridin-4-yl)-2-pyrazolo[1,5-a]pyridin-3-ylpyrimidin-4-yl]oxy}piperidin-1-yl)-3-oxopropanenitrile] | 8.22 | 9.00 | 8.22 |
| O=C(CO)N1CCC[C@@H](Nc2nc(-c3cnn4ccccc34)nc(OCC(F)F)c2F)C1 [Example 50, 2-((3R)-3-{[6-(2,2-Difluoroethoxy)-5-fluoro-2-pyrazolo[1,5-a]pyridin-3-ylpyrimidin-4-yl]amino}piperidin-1-yl)-2-oxoethanol] | 7.82 | 8.52 | 8.05 |
| O=C(CO)N1CCC[C@@H](Oc2nc(-c3cnn4ccccc34)nc(-c3ccnc(CO)c3)c2F)C1 [Example 74, 2-[(3R)-3-({5-Fluoro-6-[2-(hydroxymethyl)pyridin-4-yl]-2-pyrazolo[1,5-a]pyridin-3-ylpyrimidin-4-yl}oxy)piperidin-1-yl]-2-oxoethanol] | 8.52 | 9.00 | 8.40 |
| COc1nc(-c2cnn3ccccc23)nc(O[C@@H]2CCCN(C(=O)CO)C2)c1F [Example 63, 2-{(3R)-3-[(5-Fluoro-6-methoxy-2-pyrazolo[1,5-a]pyridin-3-ylpyrimidin-4-yl)oxy]piperidin-1-yl}-2-oxoethanol] | 6.90 | 8.52 | 8.05 |
| N#CCC(=O)N1CCC[C@@H](Nc2nc(-c3cnn4ccccc34)nc(-c3ccc(CO)cc3)c2F)C1 [Example 17, 3-[(3R)-3-({5-Fluoro-6-[4-(hydroxymethyl)phenyl]-2-pyrazolo[1,5-a]pyridin-3-ylpyrimidin-4-yl}amino)piperidin-1-yl]-3-oxopropanenitrile] | 8.70 | 9.22 | 9.00 |
| C[C@H](Nc1nc(-c2cnn3ccccc23)nc(OC[C@@H](O)CO)c1F)c1ncc(F)cn1 [Example 13, (2S)-3-[(5-fluoro-6-{[(1S)-1-(5-fluoropyrimidin-2-yl)ethyl]amino}-2-pyrazolo[1,5-a]pyridin-3-ylpyrimidin-4-yl)oxy]propane-1,2-diol] | 8.40 | 9.00 | 8.40 |
| CN(C)C1CCN(c2nc(-c3cnn4ccccc34)nc(N[C@H]3CC[C@H](CC#N)CC3)c2F)CC1 [Example 4, [Trans-4-({6-[4-(dimethylamino)piperidin-1-yl]-5-fluoro-2-pyrazolo[1,5-a]pyridin-3-ylpyrimidin-4-yl}amino)cyclohexyl]acetonitrile] | 6.66 | 9.00 | 8.40 |
| 3-((3R)-3-{[5-Fluoro-6-(4-hydroxypiperidin-1-yl)-2-pyrazolo[1,5-a]pyridin-3-ylpyrimidin-4-yl]oxy}piperidin-1-yl)-3-oxopropanenitrile [Example 76] | 8.05 | 9.00 | 8.30 |
| N#Cc1nc(-c2cnn3ccccc23)nc(N[C@@H]2CCCN(C(=O)CO)C2)c1F [Example 47, 5-Fluoro-6-{[(3R)-1-glycoloylpiperidin-3-yl]amino}-2-pyrazolo[1,5-a]pyridin-3-ylpyrimidine-4-carbonitrile] | 8.00 | 8.40 | 7.92 |
| COC[C@@H](C)Oc1nc(-c2cnn3ccccc23)nc(N[C@@H]2CCCN(C(=O)CO)C2)c1F [Example 60, 2-[(3R)-3-({5-Fluoro-6-[(1R)-2-methoxy-1-methylethoxy]-2-pyrazolo[1,5-a]pyridin-3-ylpyrimidin-4-yl}amino)piperidin-1-yl]-2-oxoethanol] | 6.96 | 8.15 | 7.80 |
| C[C@H](Nc1nc(-c2cnn3ccccc23)nc(OCCO)c1F)c1ncc(F)cn1 [Example 12, 2-[(5-Fluoro-6-{[(1S)-1-(5-fluoropyrimidin-2-yl)ethyl]amino}-2-pyrazolo[1,5-a]pyridin-3-ylpyrimidin-4-yl)oxy]ethanol] | 8.40 | 9.30 | 8.40 |
| CC(C)Oc1nc(-c2cnn3ccccc23)nc(N[C@@H]2CCCN(C(=O)CO)C2)c1F [Example 51, 2-{(3R)-3-[(5-Fluoro-6-isopropoxy-2-pyrazolo[1,5-a]pyridin-3-ylpyrimidin-4-yl)amino]piperidin-1-yl}-2-oxoethanol] | 7.44 | 8.70 | 8.52 |
| Cc1cc(-c2nc(-c3cnn4ccccc34)nc(N[C@@H]3CCCN(C(=O)CC#N)C3)c2F)ccn1 [Example 20, 3-((3R)-3-{[5-fluoro-6-(2-methylpyridin-4-yl)-2-pyrazolo[1,5-a]pyridin-3-ylpyrimidin-4-yl]amino}piperidin-1-yl)-3-oxopropanenitrile] | 9.00 | 9.30 | 9.00 |
| N#CC[C@H]1CC[C@H](Nc2nc(-c3cnn4ccccc34)nc(N3CCNCC3)c2F)CC1 [Example 3, {Trans-4-[(5-fluoro-6-piperazin-1-yl-2-pyrazolo[1,5-a]pyridin-3-ylpyrimidin-4-yl)amino]cyclohexyl}acetonitrile] | 6.82 | 9.10 | 8.40 |
| N#CCC(=O)N1CCC[C@@H](Nc2nc(-c3cnn4ccccc34)nc(-c3ccc(CO)nc3)c2F)C1 [Example 85, 3-[(3R)-3-({5-Fluoro-6-[6-(hydroxymethyl)pyridin-3-yl]-2-pyrazolo[1,5-a]pyridin-3-ylpyrimidin-4-yl}amino)piperidin-1-yl]-3-oxopropanenitrile] | 9.00 | 9.00 | 8.40 |
| N#CC[C@H]1CC[C@H](Nc2nc(-c3cnn4ccccc34)nc(OCCO)c2F)CC1 [Example 5, (Trans-4-{[5-fluoro-6-(2-hydroxyethoxy)-2-pyrazolo[1,5-a]pyridin-3-ylpyrimidin-4-yl]amino}cyclohexyl)acetonitrile] | 8.05 | 9.30 | 8.70 |
| CCOC(=O)C1(C)CCN(c2nc(-c3cnn4ccccc34)nc(N[C@@H]3CCCN(C(=O)CO)C3)c2F)CC1 [Example 28, Ethyl 1-(5-fluoro-6-{[(3R)-1-glycoloylpiperidin-3-yl]amino}-2-pyrazolo[1,5-a]pyridin-3-ylpyrimidin-4-yl)-4-methylpiperidine-4-carboxylate] | 8.30 | 9.10 | 8.52 |
| Cc1cc(-c2cc(N[C@@H]3CCCN(C(=O)CC#N)C3)nc(-c3cnn4ccccc34)n2)cc(C)n1 [Example 102, 3-((3R)-3-{[6-(2,6-Dimethylpyridin-4-yl)-2-pyrazolo[1,5-a]pyridin-3-ylpyrimidin-4-yl]amino}piperidin-1-yl)-3-oxopropanenitrile] | 9.00 | 8.70 | 8.30 |
| CCCCOc1nc(-c2cnn3ccccc23)nc(N[C@@H]2CCCN(C(=O)CC#N)C2)c1F [Example 15, 3-{(3R)-3-[(6-butoxy-5-fluoro-2-pyrazolo[1,5-a]pyridin-3-ylpyrimidin-4-yl)amino]piperidin-1-yl}-3-oxopropanenitrile] | 7.89 | 9.00 | 8.70 |
| O=C(CO)N1CCC[C@@H](Nc2nc(-c3cnn4ccccc34)nc(OCCO)c2F)C1 [Example 40, 2-((3R)-3-{[5-Fluoro-6-(2-hydroxyethoxy)-2-pyrazolo[1,5-a]pyridin-3-ylpyrimidin-4-yl]amino}piperidin-1-yl)-2-oxoethanol] | 8.40 | 9.10 | 8.70 |
| Cc1cc(-c2nc(-c3cnn4ccccc34)nc(N[C@@H]3CCCN(C(=O)CO)C3)c2F)ccn1 [Example 34, 2-((3R)-3-{[5-Fluoro-6-(2-methylpyridin-4-yl)-2-pyrazolo[1,5-a]pyridin-3-ylpyrimidin-4-yl]amino}piperidin-1-yl)-2-oxoethanol] | 8.70 | 9.70 | 8.40 |
| N#CCC(=O)N1CCC[C@@H](Nc2nc(-c3cnn4ccccc34)nc(-c3ccc(N)nc3)c2F)C1 [Example 18, 3-((3R)-3-{[6-(6-Aminopyridin-3-yl)-5-fluoro-2-pyrazolo[1,5-a]pyridin-3-ylpyrimidin-4-yl]amino}piperidin-1-yl)-3-oxopropanenitrile] | 9.00 | 9.22 | 8.70 |
| CN1CCN(c2nc(-c3cnn4ccccc34)nc(O[C@@H]3CCCN(C(=O)CC#N)C3)c2F)CC1 [Example 68, 3-((3R)-3-{[5-Fluoro-6-(4-methylpiperazin-1-yl)-2-pyrazolo[1,5-a]pyridin-3-ylpyrimidin-4-yl]oxy}piperidin-1-yl)-3-oxopropanenitrile] | 7.32 | 9.00 | 8.22 |
| C[C@H](O)COc1nc(-c2cnn3ccccc23)nc(O[C@@H]2CCCN(C(=O)CO)C2)c1F [Example 90, (2S)-1-[(5-Fluoro-6-{[(3R)-1-glycoloylpiperidin-3-yl]oxy}-2-pyrazolo[1,5-a]pyridin-3-ylpyrimidin-4-yl)oxy]propan-2-ol] | 7.85 | 9.00 | 8.40 |
| N#Cc1cnc(N2CCC[C@@H](Nc3cc(OCCO)nc(-c4cnn5ccccc45)n3)C2)cn1 [Example 104, 5-((3R)-3-{[6-(2-Hydroxyethoxy)-2-pyrazolo[1,5-a]pyridin-3-ylpyrimidin-4-yl]amino}piperidin-1-yl)pyrazine-2-carbonitrile] | 8.40 | 8.52 | 9.00 |
